Measurements taken from patent publication US5260271A, “Nisin compositions for use as enhanced broad range bactericides” (Applied Microbiology, Inc., priority 1992, dated 1993).
Where no end group is shown, it is not given here.

Tests used:
Listeria monocytogenes [1] = assay: Bactericidal activity towards Listeria monocytogenes in Tris buffer; type: cell-based; conditions: L. monocytogenes; pH 8.0, Nisin 3.0 μg/ml, EDTA 0 mM
Method: (§1) All tests in the following examples were performed at 37° C. The efficacy of the enhanced broad range bactericides was determined by assaying bactericidal activity as measured by the percent bacterial survival after treatment with the bactericide. Generally, after incubation of a 10^7 cell per ml suspension of target species with the novel bactericide for specified lengths of time, bacteria were collected by centrifugation for 2 minutes. […] Surviving bacteria were determined by scoring colony forming units (CFU) after incubation for 24-48 hours at 37° C. An effective bactericide according to this invention is one which allows less than 0.1% of the initial viable count of the bacteria to survive.
(§2) Incubations were performed in 20 mM TrisHCl, pH 8.0 at 37° C.

Listeria monocytogenes [2] = assay: Bactericidal activity towards Listeria monocytogenes in milk; type: cell-based; conditions: L. monocytogenes in milk at 37° C.; Nisin 100 μg/ml, Monooleate 0%
Method: as §1
An example of where the application of nisin is limited by its available activity is illustrated by the data in Table 15B.
(§3) Incubations were in milk at 37° C.

S. typhimurium = assay: Bactericidal activity, percent bacterial survival of S. typhimurium suspension; type: cell-based, Salmonella typhimurium; conditions: for Percentage S. typhimurium Survival at 3 hours / % Survival at 2 hours: EDTA 0 mM
Method: (§4) All tests in the following examples were performed at 37° C. The efficacy of the enhanced broad range bactericides was determined by assaying bactericidal activity as measured by the percent bacterial survival after treatment with the bactericide. Generally, after incubation of a 10^7 cell per ml suspension of target species with the novel bactericide for specified lengths of time, bacteria were collected by centrifugation for 2 minutes. […] Surviving bacteria were determined by scoring colony forming units (CFU) after incubation for 24-48 hours at 37° C.
The control (Test #1) is identical to the control of Example 1 (Table 1).

Streptococcus mutans [3] = assay: Rapid bactericidal activity towards Streptococcus mutans in the presence of divalent cation, 10% Fetal Calf Serum; type: cell-based; conditions: S. mutans, Nisin 3, no EDTA, 0 mM
Method: (§6) All tests in the following examples were performed at 37° C. The efficacy of the enhanced broad range bactericides was determined by assaying bactericidal activity as measured by the percent bacterial survival after treatment with the bactericide. Generally, after incubation of a 10^7 cell per ml suspension of target species with the novel bactericide for specified lengths of time, bacteria were collected by centrifugation for 2 minutes. The bacterial pellet was washed free of the bactericide with a rescue buffer, termed herein Phage buffer (50mM Tris-HCl buffer pH 7.8, 1 mM MgSO4, 4 mM CaCl2, 0.1 M Nacl, and 0.1% gelatin), resuspended and serially diluted into Phage buffer, and 100 μl of the suspended bacteria were spread on nutrient agar plates. Surviving bacteria were determined by scoring colony forming units (CFU) after incubation for 24-48 hours at 37° C.
Incubations performed in 10% Fetal Calf Serum at 37° C.

Staphylococcus aureus = assay: Bactericidal activity towards Staphylococcus aureus, percent survival; type: cell-based; conditions: S. aureus, EDTA 0 mM
Method: as §1
Incubations were performed in 50 mM sodium acetate buffer, pH 5.0 or 20 m
TrisHCl buffer, pH 8.0 at 37° C.

Streptococcus agalactiae = assay: Bactericidal activity towards Streptococcus agalactiae in milk; type: cell-based; conditions: for % survival at 2h: S. agalactiae in milk at 37° C., Monolaurin 0%
Method: as §1
However, the combination of the two agents, 0.1% monolaurin and nisin 0.2 μg/ml, is extremely potent towards S. agalactiae. […] Thus, when the application of nisin is limited by its available activity, a bactericide comprising nisin with a surfactant can be expected to be more useful.
as §3

E. coli = assay: Bactericidal activity, percent bacterial survival of E. coli suspension; type: cell-based, Escherichia coli; conditions: EDTA 0 mM, Triton X-100 0%, 20 mM Tris pH 8.0
Method: as §4
The effects of the bactericide were measured as a function of percentage bacteria survival after 2 hours.
Incubations were performed in 20 mM Tris, […] at 37° C.

[4] = system: S. typhimurium on chicken muscle; assay: Bactericidal activity towards S. typhimurium on chicken muscle (unadhered cells); type: cell-based, Salmonella typhimurium; conditions: chicken muscle, EDTA 0 mM
Method: Incubations were performed in either 50 mM sodium acetate, pH 5.0, or 20 mM Tris, pH 8.0 at 37° C.
Cubes of chicken muscle were cleansed with sodium hypochlorite and povidone iodine prior to use. To inoculate the tissue, the cubes of chicken muscle were dipped into a 10^8 cells/ml suspension of S. typhimurium in 20 mM Tris HCl, pH 8.0. Excess moisture was removed from dipped cubes by tapping. The chicken samples were placed into sufficient buffer containing the nisin composition to cover the tissue and incubated for 2 hours at 37° C. after which the tissue was removed to sufficient Phage buffer to cover the tissue. The bacteria remaining in the test solution were collected by centrifugation, washed with Phage buffer, and combined with bacteria washed from the tissue by Phage buffer. The combined samples (termed "unadhered" cells) were serially diluted and 100 μl aliquots were plated for determination of surviving bacteria.
(§5) Cubes of chicken muscle were cleansed with sodium hypochlorite and povidone iodine prior to use. To inoculate the tissue, the cubes of chicken muscle were dipped into a 10^8 cells/ml suspension of S. typhimurium in 20 mM Tris HCl, pH 8.0. Excess moisture was removed from dipped cubes by tapping. The tissue was placed into sufficient buffer containing the nisin compositions to cover the tissue, and incubated for 2 hours at 37° C. after which the tissue was removed to sufficient Phage buffer to cover the tissue. The bacteria remaining in the test solution were collected by centrifugation, washed with Phage buffer, and combined with bacteria washed from the tissue by Phage buffer. The combined samples (termed "unadhered" cells) were serially diluted and 100 μl aliquots were plated for determination of surviving bacteria.
as §5, with “cleaned” for “cleansed”, “50” for “20”, “sodium acetate buffer,” for “Tris HCl,”, “5.0.” for “8.0.”, “containing” for “containing the”

Streptococcus mutans [5] = assay: Bactericidal activity and kinetics towards Streptococcus mutans in Tris buffer; type: cell-based; conditions: S. mutans; pH 8.0, Nisin 0.1 μg/ml, EDTA 0 mM
Method: as §6
The suspensions were incubated for various times ranging from 0.5 to 60 minutes with the bactericides.
Incubations were performed in 20 mM TrisHCl, pH 7.3 at 37° C.

Coryneform bacteria = assay: Bactericidal activity towards Coryneform bacteria; type: cell-based; conditions: pH 8.0, Nisin 3 μg/ml, EDTA 0 mM
Method: as §1, §2

K. pneumoniae = assay: Bactericidal activity, percent bacterial survival of K. pneumoniae suspension; type: cell-based, Klebsiella pneumoniae; conditions: EDTA 0 mM, 20 mM Tris pH 8.0
Method: as §4
The effect was measured as a function of percentage bacterial survival after 2 hours.

Question: “Nisin (ITSISLCTPGCKTGALMGCNMKTATCHCSIHVSK; not fully specified (residues 2, 5, 33, bridges); cysteine pairing not given here; UniProt P13068 24-57, looked up) [polypeptide bacteriocin with antimicrobial properties produced by strains of Streptococcus lactis; known food preservative]” was tested. Which “% Survival after 2 hr” value (Listeria monocytogenes [1]) did it give?
Answer: Its value is 0.71%.

Question: And the “% Survival 2 hr” value (Listeria monocytogenes [2])?
Answer: Its value is 0.56%.

Question: And the “Percentage S. typhimurium Survival at 3 hours” value (S. typhimurium; Nisin 50 µg/ml, 20 mM Tris pH 8.0, 37° C)?
Answer: The value was 7.0%.

Question: What about the “Percentage S. typhimurium Survival at 3 hours” value (S. typhimurium; Nisin 100 µg/ml, 20 mM Tris pH 8.0, 37° C) of the same substance?
Answer: The value was 1.6%.

Question: And the “Percentage S. typhimurium Survival at 3 hours” value (S. typhimurium; Nisin […], 20 mM Tris pH 8.0, 37° C)?
Answer: The value was 51.3%.

Question: And the survival (S. typhimurium; S. typhimurium, 100 μg/ml nisin in the absence of EDTA, 20 mM Tris pH 8.0)?
Answer: Its survival is 1.6%.

Question: And the “% Survival at 2 hours” value (S. typhimurium; S. typhimurium, pH 5.0, Nisin 100 μg/ml)?
Answer: Its value is 0.6%.

Question: What about the “% Survival at 2 hours” value (S. typhimurium; S. typhimurium, pH 8.0, Nisin 100 μg/ml) of the same substance?
Answer: The value was 4%.

Question: What about the “Percentage S. typhimurium Survival at 3 hours” value (S. typhimurium; Table 2: Nisin 10 μg/ml, Triton X-100 0%, 20 mM Tris pH 8.0) of the same substance?
Answer: The value was 51.3%.

Question: And the “Percentage S. typhimurium Survival at 3 hours” value (S. typhimurium; Table 2: Nisin 50 μg/ml, Triton X-100 0%, 20 mM Tris pH 8.0)?
Answer: Its value is 7.0%.

Question: And the “Percentage S. typhimurium Survival at 3 hours” value (S. typhimurium; Table 2: Nisin 100 μg/ml, Triton X-100 0%, 20 mM Tris pH 8.0)?
Answer: The value was 1.6%.

Question: What about the “Percentage S. typhimurium Survival at 3 hours” value (S. typhimurium; Table 3: Nisin 10 μg/ml, Tween20 0%, 20 mM Tris pH 8.0) of the same substance?
Answer: Its value is 51.3%.

Question: And the “Percentage S. typhimurium Survival at 3 hours” value (S. typhimurium; Table 3: Nisin 50 μg/ml, Tween20 0%, 20 mM Tris pH 8.0)?
Answer: Its value is 7.0%.

Question: What about the “Percentage S. typhimurium Survival at 3 hours” value (S. typhimurium; Table 3: Nisin 100 μg/ml, Tween20 0%, 20 mM Tris pH 8.0) of the same substance?
Answer: Its value is 1.6%.

Question: What about the “% Survival at 2 hours” value (S. typhimurium; Table 8, S. typhimurium, Nisin 100 μg/ml, BSA 0%, Tris buffer) of the same substance?
Answer: Its value is 1.6%.

Question: What about the “% survival at 1 min.” value (Streptococcus mutans [3]) of the same substance?
Answer: The value was 2.9%.

Question: And the “% Survival 2 hr” value (Staphylococcus aureus; pH 5.0, Nisin 3.0 μg/ml)?
Answer: The value was 0.6%.

Question: What about the “% Survival 2 hr” value (Staphylococcus aureus; pH 8.0, Nisin 3.0 μg/ml) of the same substance?
Answer: The value was 7.4%.

Question: And the “% survival at 2h” value (Streptococcus agalactiae; Nisin 0.02 μg/ml)?
Answer: Its value is 100%.

Question: What about the “% survival at 2h” value (Streptococcus agalactiae; Nisin 0.2 μg/ml) of the same substance?
Answer: The value was 2.2%.

Question: What about the “bactericidal activity towards Streptococcus agalactiae” value (Streptococcus agalactiae; nisin at concentrations up to 0.2 μg/ml, in milk) of the same substance?
Answer: The value was “does not exhibit significant bactericidal activity”.

Question: What about the “Percentage E. coli Survival at 2 hours” value (E. coli; Nisin 30 μg/ml) of the same substance?
Answer: The value was 27%.

Question: What about the “Percentage E. coli Survival at 2 hours” value (E. coli; Nisin 100 μg/ml) of the same substance?
Answer: The value was 25%.

Question: And the “Percentage E. coli Survival at 2 hours” value (E. coli; Nisin 300 μg/ml)?
Answer: The value was 8.5%.

Question: What about the “% Survival at 2 hours (Unadhered cells)” value ([4]; pH 5.0, Nisin 300 μg/ml) of the same substance?
Answer: The value was 0.1%.

Question: What about the “% Survival at 2 hours (Unadhered cells)” value ([4]; pH 8.0, Nisin 300 μg/ml, 1% Bovine serum albumin) of the same substance?
Answer: The value was 0.02%.

Question: And the “% Survival at 2 hours (Unadhered cells)” value ([4]; pH 8.0, Nisin 300 μg/ml)?
Answer: Its value is 7.5%.

Question: And the “% Survival after 2 hr” value (Streptococcus mutans [5])?
Answer: The value was 4.3%.

Question: And the “% Survival 2 hr” value (Coryneform bacteria)?
Answer: The value was 0.22%.

Question: And the “% Survival at 2 hours” value (K. pneumoniae; Nisin 100 μg/ml)?
Answer: Its value is 50%.

Question: What about the “% Survival at 2 hours” value (K. pneumoniae; Nisin 300 μg/ml) of the same substance?
Answer: The value was 38%.
